According to patent US8716284B2, “Adamantyl diamide derivatives and uses of same” (H. Lundbeck A/S, priority 2008, dated 2014):

These molecules were tested against T1, rat metabotropic glutamate receptor 5 (mGluR5) (Rattus norvegicus, UniProt P31424) (assay: Calcium mobilization assay (FLIPR) for negative or positive allosteric activity, HEK 293 cells). Conditions: HEK293, negative allosteric modulation, inhibition of EC80 glutamate response; read-out: FLIPR maximum inhibition.
T1 construct: expressed in transfected cells; host or cells: HEK 293
T1 sequence (P31424 21-1171 isoform P31424-2 limits assumed): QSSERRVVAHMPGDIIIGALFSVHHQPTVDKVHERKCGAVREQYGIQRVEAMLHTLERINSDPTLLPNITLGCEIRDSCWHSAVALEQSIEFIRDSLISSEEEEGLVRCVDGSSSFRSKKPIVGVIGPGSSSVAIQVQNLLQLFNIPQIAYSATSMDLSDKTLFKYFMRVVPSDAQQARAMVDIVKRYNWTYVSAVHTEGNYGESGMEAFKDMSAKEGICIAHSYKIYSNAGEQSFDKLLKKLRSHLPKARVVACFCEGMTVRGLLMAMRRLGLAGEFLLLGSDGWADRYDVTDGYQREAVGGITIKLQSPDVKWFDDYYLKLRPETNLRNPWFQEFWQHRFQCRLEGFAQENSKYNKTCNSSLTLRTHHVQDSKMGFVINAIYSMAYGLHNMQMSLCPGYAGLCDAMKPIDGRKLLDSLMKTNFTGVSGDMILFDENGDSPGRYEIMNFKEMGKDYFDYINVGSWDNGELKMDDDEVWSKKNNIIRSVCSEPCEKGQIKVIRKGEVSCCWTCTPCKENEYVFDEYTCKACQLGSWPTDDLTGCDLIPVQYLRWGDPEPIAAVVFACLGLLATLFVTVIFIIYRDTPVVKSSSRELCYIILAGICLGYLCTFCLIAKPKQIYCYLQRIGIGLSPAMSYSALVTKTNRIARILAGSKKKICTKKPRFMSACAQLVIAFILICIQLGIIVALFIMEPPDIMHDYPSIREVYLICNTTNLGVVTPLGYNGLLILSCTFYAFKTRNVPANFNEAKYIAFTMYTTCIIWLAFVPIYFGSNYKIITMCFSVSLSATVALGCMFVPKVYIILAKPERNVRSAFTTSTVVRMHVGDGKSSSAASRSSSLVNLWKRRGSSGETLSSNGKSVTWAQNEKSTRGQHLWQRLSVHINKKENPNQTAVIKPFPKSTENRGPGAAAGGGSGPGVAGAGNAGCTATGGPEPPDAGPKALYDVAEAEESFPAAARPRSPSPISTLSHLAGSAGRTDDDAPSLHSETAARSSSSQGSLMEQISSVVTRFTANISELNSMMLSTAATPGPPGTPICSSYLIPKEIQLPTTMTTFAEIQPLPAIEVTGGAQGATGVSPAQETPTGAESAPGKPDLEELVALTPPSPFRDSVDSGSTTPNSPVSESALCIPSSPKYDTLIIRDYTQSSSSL
Assay type: cell-based
Method: The cDNA for rat metabotropic glutamate receptor 5 (mGluR5) was a generous gift from S. Nakanishi (Kyoto University, Kyoto, Japan). The mGluR5 was stably expressed in a HEK 293 cell line and grown in Dulbecco's Modified Eagle Medium (DMEM) (Invitrogen, Carlsbad, Calif.) with supplements (10% bovine calf serum, 4 mM glutamine, 100 units/mL penicillin, 100 μg/mL streptomycin and 0.75 mM G1418) at 37° C., 5% CO2. Twenty-four hours prior to assay, cells were seeded into 384-well black wall microtiter plates coated with poly-D-lysine. Just prior to assay, media was aspirated and cells dye-loaded (25 μL/well) with 3 μM Fluo-4/0.01% pluronic acid in assay buffer (Hank's Balanced Saline Solution (HBSS)): 150 mM NaCl, 5 mM KCl, 1 mM CaCl2, 1 mM MgCl2, plus 20 mM N-2-Hydroxyethylpiperazine-N′-2-ethanesulfonic acid (HEPES), pH 7.4, 0.1% bovine serum albumin (BSA) and 2.5 mM probenicid) for 1 hour in 5% CO2 at 37° C. After excess dye was discarded, cells were washed in assay buffer and layered with a final volume equal to 30 μL/well. Basal fluorescence is monitored in a fluorometric imaging plate reader (FLIPR) (Molecular Devices, Sunnyvale, Calif.) with an excitation wavelength of 488 nm and an emission range of 500 to 560 nm. Laser excitation energy was adjusted so that basal fluorescence readings were approximately 10,000 relative fluorescent units. Cells were stimulated with an EC20 or an EC80 concentration of glutamate in the presence of a compound to be tested, both diluted in assay buffer, and relative fluorescent units were measured at defined intervals (exposure=0.6 sec) over a 3 min period at room temperature. Basal readings derived from negative controls were subtracted from all samples. Maximum change in fluorescence was calculated for each well. Concentration-response curves derived from the maximum change in fluorescence were analyzed by nonlinear regression (Hill equation). A negative modulator can be identified from these concentration-response curves if a compound produces a concentration dependent inhibition of the EC80 glutamate response. […] Examples 11-163 also were tested in the above assay.
A positive modulator can be identified from these concentration-response curves if a compound produces a concentration dependent increase in the EC20 glutamate response.

| Emax [%] | SMILES |
| --- | --- |
| 63 to 99 | O=C(NC12CC3CC(C1)CC(NC(=O)c1cccc(N4CCOCC4)n1)(C3)C2)c1cccc(F)c1 [Example 215, 6-Morpholin-4-yl-pyridine-2-carboxylic acid [3-(3-fluoro-benzoylamino)-adamantan-1-yl]-amide] |
| 63 to 99 | Cc1cccc(C(=O)NC23CC4CC(CC(NC(=O)c5cc(C)on5)(C4)C2)C3)n1 [Example 39, 6-Methyl-pyridine-2-carboxylic acid {3-[(5-methyl-isoxazole-3-carbonyl)-amino]-adamantan-1-yl}-amide] |
| 63 to 99 | Cc1cccc(C(=O)NC23CC4CC(CC(NC(=O)c5cccc(CCl)c5)(C4)C2)C3)n1 [Example 45, 6-Methyl-pyridine-2-carboxylic acid [3-(3-chloromethyl-benzoylamino)-adamantan-1-yl]-amide] |
| 63 to 99 | CN(C)C1CCN(c2cccc(C(=O)NC34CC5CC(CC(NC(=O)c6cccc(F)c6)(C5)C3)C4)n2)C1 (centres unmarked) [Example 217, 6-(3-Dimethylamino-pyrrolidin-1-yl)-pyridine-2-carboxylic acid [3-(3-fluoro-benzoylamino)-adamantan-1-yl]-amide] |
| 70 to 99 | Cc1cccc(C(=O)NC23CC4CC(C2)CC(NC(=O)c2cccc(F)n2)(C4)C3)n1 [Example 135, 6-Methyl-pyridine-2-carboxylic acid {3-[(6-fluoro-pyridine-2-carbonyl)-amino]-adamantan-1-yl}-amide] |
| 63 to 99 | Cc1cncc(C(=O)NC23CC4CC(C2)CC(NC(=O)c2ccnc(C)n2)(C4)C3)n1 [Example 173, 2-Methyl-pyrimidine-4-carboxylic acid {3-[(6-methyl-pyrazine-2-carbonyl)-amino]-adamantan-1-yl}-amide] |
| 63 to 99 | Cc1cccc(C(=O)NC23CC4CC(C2)CC(NC(=O)c2cccc(NCCN(C)C)n2)(C4)C3)n1 [Example 232, 6-(2-Dimethylamino-ethylamino)-pyridine-2-carboxylic acid {3-[(6-methyl-pyridine-2-carbonyl)-amino]-adamantan-1-yl}-amide] |
| 63 to 99 | Cc1cccc2nc(C(=O)NC34CC5CC(CC(NC(=O)c6cccc(F)c6)(C5)C3)C4)cn12 [Example 103, 5-Methyl-imidazo[1,2-a]pyridine-2-carboxylic acid [3-(3-fluoro-benzoylamino)-adamantan-1-yl]-amide] |
| 70 to 99 | Cc1cncc(C(=O)NC23CC4CC(C2)CC(NC(=O)c2cc(Cl)ccc2F)(C4)C3)n1 [Example 161, 6-Methyl-pyrazine-2-carboxylic acid [3-(5-chloro-2-fluoro-benzoylamino)-adamantan-1-yl]-amide] |
| 63 to 99 | Cn1ccc(C(=O)NC23CC4CC(CC(NC(=O)c5cccc(F)c5)(C4)C2)C3)n1 [Example 97, 1-Methyl-1H-pyrazole-3-carboxylic acid [3-(3-fluoro-benzoylamino)-adamantan-1-yl]-amide] |
| 63 to 99 | O=C(NC12CC3CC(C1)CC(NC(=O)c1ccc4nccn4c1)(C3)C2)c1cccc(F)c1 [Example 101, Imidazo[1,2-a]pyridine-6-carboxylic acid [3-(3-fluoro-benzoylamino)-adamantan-1-yl]-amide] |
| 63 to 99 | Cc1cccc(C(=O)NC23CC4CC(C2)CC(NC(=O)c2ccn(C)n2)(C4)C3)n1 [Example 20, 6-Methyl-pyridine-2-carboxylic acid {3-[(1-methyl-1H-pyrazole-3-carbonyl)-amino]-adamantan-1-yl}-amide] |
| 63 to 99 | Cc1cccc(C(=O)NC23CC4CC(C2)CC(NC(=O)c2cccc(N5CCC[C@@H]5CO)n2)(C4)C3)n1 [Example 238, 6-((R)-2-Hydroxymethyl-pyrrolidin-1-yl)-pyridine-2-carboxylic acid {3-[(6-methyl-pyridine-2-carbonyl)-amino]-adamantan-1-yl}-amide] |
| 70 to 99 | Cc1cncc(C(=O)NC23CC4CC(CC(NC(=O)c5ccnc(F)c5)(C4)C2)C3)n1 [Example 160, 6-Methyl-pyrazine-2-carboxylic acid {3-[(2-fluoro-pyridine-4-carbonyl)-amino]-adamantan-1-yl}-amide] |
